Data reported in PubChem BioAssay (NCI).
Where “and” joins values, the source holds several entries; their conditions need not be identical. Equal entries are not always repeated.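 Exposure lasted 48 hours, with cells grown in 96-well plates and compounds tested at five concentrations. GI50 = concentration required for 50% inhibition of growth. Definition used: TGI = concentration required for complete inhibition of growth.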

Key:
Assay in all cases: DTP human tumour cell line panel, 48 h
[1] = system: COLO 205 colon
[2] = system: HCT-116 colon
[3] = system: NCI-H226 lung
[4] = system: NCI-H522 lung
[5] = system: NCI/ADR-RES ovarian
[6] = system: OVCAR-5 ovarian
[7] = system: RXF 393 renal
[8] = system: SK-MEL-5 melanoma
[9] = system: T-47D breast
[10] = system: TK-10 renal

Structure (SMILES)	TGI [1]	TGI [2] [µM]	TGI [3]	TGI [4]	TGI [5] [µM]	TGI [6]	TGI [7]	TGI [8]	TGI [9] [µM]	TGI [10]	GI50 [1] [µM]	GI50 [2] [µM]	GI50 [3] [µM]	GI50 [5]	GI50 [6]	GI50 [7]	GI50 [8] [µM]	GI50 [9] [µM]	GI50 [10]	GI50 [4]
O=C(O)C(=Cc1ccnc2ccccc12)C(=O)O	> 100 µM	> 100	> 100 µM	> 100 µM	> 100	> 100 µM	> 100 µM	> 100 µM	> 100	> 100 µM										
O=Cc1c(-c2cc(O)ccc2O)nc2sccn12	> 100 µM	27.3	37.7 µM		48.5	74.4 µM	26.6 µM	35.6 µM	> 100	23.6 µM	32.3	14	14.7	16 µM	23.1 µM	7.83 µM	15.8	12.3	11 µM	
C[C@]12CCC3[C@@H](C[C@@H]4SC(Nc5ccccc5)=N[C@@]45CC(=O)CC[C@]35C)[C@@H]1CCC2=O (stereo not given in full)	37.4 µM	4.16	45 µM	23.6 µM	> 100	> 100 µM	14.2 µM	26 µM	> 100	54.8 µM	12.3	1.91	7.36	6.34 µM	24.5 µM	3.18 µM	10.2	3.5	7.46 µM	6.6 µM
COc1ccc(/C=C/C(=O)c2cc3c(N)c(C(=O)Nc4ccccc4Cl)sc3nc2C)cc1	> 50 µM	> 50	17.4 µM	> 50 µM	16	> 50 µM	3.6 µM	8.79 µM	> 50	30.5 µM	17.2	1.11	2.43	1.62 µM	> 50 µM	0.846 µM	1.36	2.95	2.64 µM	0.365 µM
Cc1c(N=Nc2ccc([N+](=O)[O-])cc2)nc2scc(-c3ccccc3)n12	> 100 µM	> 100	> 100 µM	> 100 µM	> 100	> 100 µM	> 100 µM	> 100 µM	> 100	> 100 µM										
OCc1cn(Cc2cccc(Cl)c2)c2ccccc12	20.3 µM	13.5	0.222 µM	22.7 µM	62	8.89 µM	18 µM	23.7 µM	5.15	0.21 µM	0.432	< 0.0163	0.0313	13.7 µM	2.63 µM	2.43 µM	11	< 0.0208	< 0.0145 µM	5.95 µM
OCCCCC#Cc1ccccc1C#Cc1ccccc1	36.3 µM	31.6	35.3 µM	> 100 µM	47.3	43.6 µM		28.6 µM	> 100	26.3 µM	12.9	16.8	16.2	17 µM	17.7 µM		14.4	7.53	13.2 µM	27 µM
N[C@@H](Cc1c[nH]c2ccccc12)C(=O)NC1CCN(C(=O)c2c[nH]c3ccccc23)CC1	> 100 µM	> 100	> 100 µM	> 100 µM	> 100	> 100 µM		> 100 µM	> 100	> 100 µM	47.9	36.3	> 100	> 100 µM	> 100 µM		> 100	74.5	> 100 µM	> 100 µM
COc1c(O)c2c(c3cc(C(=O)N4CCc5c4c(O)c(OC)c4[nH]c(C(=O)N6CC7CC78C6=CC(=O)c6[nH]cc(C)c68)cc54)[nH]c13)CCN2C(N)=O (stereo not given)	3.83 nM and 5.18 µM and 0.00504 µg/mL		1.47 nM and 276 nM and 0.0163 µg/mL	48.3 nM and 0.0372 µg/mL		0.0519 µg/mL	447 nM and 0.0456 µg/mL	27.9 nM and 400 nM and 0.00964 µg/mL	40	222 nM and 0.0678 µg/mL					0.0152 µg/mL	0.0282 µg/mL			0.0259 µg/mL	0.0168 µg/mL
COP(=O)(OC)C(NC(c1ccccc1)c1ccccc1)c1ccc2c(c1)OCO2 (stereo not given)	> 100 µM	35.3	66.6 µM	70 µM	> 100	> 100 µM	50.1 µM	30.5 µM	84.7	> 100 µM	52.2	16.3	30.7	30.3 µM	54.6 µM	23 µM	16.9	27	44.5 µM	24.5 µM
C1CC[N-]CC1.C1CC[N-]CC1.C1CC[N-]CC1.C1CC[N-]CC1.[Cl][Rh][Cl]	9.34 µM	> 100	> 100 µM	2.65 µM	> 100	49.8 µM	81.1 µM	18.9 µM	> 100	> 100 µM	3.17	4.75	4.47	> 100 µM	6.83 µM	13.8 µM	4.2	3.87	23.6 µM	1.03 µM
CC12CCC3C(CC=C4CC(O)CCC43C)C1C/C(=C\N1CCCC1)C2=O (stereo not given)	> 100 µM	> 100	> 100 µM	> 100 µM	> 100	> 100 µM	> 100 µM	> 100 µM	> 100	> 100 µM	> 100	69.3	> 100	> 100 µM	> 100 µM	41.8 µM	64.5	30.2	> 100 µM	> 100 µM
CC(=O)O[C@H]1C(=O)[C@@]2(C)C(C(OC(=O)c3ccccc3)[C@]3(O)CC(OC(=O)[C@H](OC(=O)CCC(=O)O)C(NC(=O)c4ccccc4)c4ccccc4)C(C)=C1C3(C)C)C1(OC(C)=O)COC1C[C@@H]2OC(=O)CCC(=O)O (stereo not given in full)	18.6 µM	> 100	81.1 µM and > 100 µM		> 100		> 26 µM	> 100 µM	> 100	> 100 µM	0.865			> 100 µM and 26.6 µM						
N#Cc1c(C(=O)c2ccccc2)cnn1-c1ccccc1	> 25 µM	> 25	> 25 µM	> 25 µM	> 25	> 25 µM	> 25 µM	> 25 µM	> 25	> 25 µM	> 25	> 25	> 25	> 25 µM	> 25 µM	> 25 µM	> 25	> 25	> 25 µM	> 25 µM
CCOP(=O)(OCC)C(NC(c1ccccc1)c1ccccc1)c1ccccc1 (stereo not given)		26		48 µM	24.8			33.3 µM	99	28.2 µM		13.2		11 µM			19	42.6	14.7 µM	17.1 µM
COc1ccc2[nH]c(-c3ccccn3)cc(=O)c2c1	> 100 µM	> 100	> 100 µM	65.8 µM		> 100 µM	33.8 µM	> 100 µM		> 100 µM		33.6	36.6			2.49 µM	28.5			
[N-]=[N+]=NC(c1cn(C2CC(O)C(CO)O2)c(=O)[nH]c1=O)C(Br)I (stereo not given)	> 100 µM	> 100	> 100 µM	> 100 µM		> 100 µM	> 100 µM	> 100 µM		> 100 µM										

Structure (SMILES)	TGI [1]	TGI [2] [µM]	TGI [3]	TGI [4]	TGI [5] [µM]	TGI [6]	TGI [7]	TGI [8]	TGI [9] [µM]	TGI [10]	GI50 [1] [µM]	GI50 [2] [µM]	GI50 [3] [µM]	GI50 [5]	GI50 [6]	GI50 [7]	GI50 [8] [µM]	GI50 [9] [µM]	GI50 [10]	GI50 [4]
O=C1C(Cl)C(c2cccc(O)c2)N1n1cnc2ccccc2c1=O (stereo not given)	> 100 µM	> 100	> 100 µM	> 100 µM		> 100 µM	> 100 µM	> 100 µM		> 100 µM										
COc1ccc(/C=N/N=C(\N)NO)cc1OC	> 100 µM	> 100	> 100 µM	79.9 µM		> 100 µM	67.4 µM	58.3 µM		> 100 µM										
C(=N\Nc1ccccn1)/c1ccccn1	> 100 µM	> 100		> 100 µM	> 39.7	> 100 µM			> 100	> 100 µM	0.356	0.303	0.356	0.359 µM	0.588 µM	0.335 µM		0.332		0.71 µM
O=C1C(Cl)=C(Cl)C(=O)N1C1C2CC3CC(C2)CC1C3 (stereo not given)	> 100 µM	> 100	> 100 µM	> 64.5 µM		> 100 µM	> 100 µM	> 100 µM		> 100 µM										
C/C(O)=C(\N=O)C(=O)NCCc1ccccc1	> 66.9 µM	> 70.1	> 100 µM	> 100 µM		> 100 µM	> 100 µM	> 100 µM		> 79.2 µM										
N#CC(=S)Nc1cccc(Cl)c1	> 100 µM	> 100	> 100 µM		> 100	> 100 µM	> 100 µM	44.5 µM	> 100	> 100 µM										
CC(=O)OC1C(=O)C(O)C(C)OC1O[C@@H]1C[C@@]2(C)[C@@H]3CC=C4[C@@H](C[C@H](O)C(=O)C4(C)C)[C@]3(C)C(=O)C[C@]2(C)[C@H]1[C@@](C)(O)C(=O)/C=C/C(C)(C)O (stereo not given in full)	> 6.77 µM	> 10	2 µM	6.12 µM		> 10 µM	1.43 µM	8.4 µM		3.44 µM										
CCN(Cc1cccc(OC)c1)c1ccc(CO)c(Cl)c1	4.35 µM	11.2	0.231 µM	32.6 µM	43.4	0.606 µM	28.8 µM	22.7 µM	1.83		1.02	0.0731	0.0957	13.7 µM	0.157 µM	11.9 µM	10.2	0.165		9.51 µM
O=c1n(C2CCCCC2)c(=C(Cl)Cl)c(=C(Cl)Cl)n1C1CCCCC1	> 100 µM	> 100	> 100 µM	> 100 µM		> 100 µM	> 100 µM	> 100 µM		> 100 µM										
Cc1cccc(C(C)(C)C)c1NC(=O)C(=O)C(C(=O)/C=C\c1ccccc1)C1OC(=O)c2ccccc21 (stereo not given)	> 100 µM	> 100	> 100 µM	> 100 µM		> 100 µM	> 100 µM	> 100 µM		> 100 µM										
CC(C)N(C(=O)C12C3C4C5(C#N)C3C1(I)C5C42I)C(C)C (stereo not given)	> 58.9 µM	34.3	> 100 µM	> 100 µM		> 100 µM	> 100 µM	> 100 µM		> 100 µM										
CC[C@]1(O)CC2CN(CCc3c([nH]c4ccccc34)[C@@](C(=O)OC)(c3cc4c(cc3OC)N(C)[C@H]3[C@@](O)(C(=O)OC)[C@H](OC(C)=O)[C@]5(CC)C=CCN6CC[C@]43[C@@H]65)C2)C1 (stereo not given in full)	0.00511 µM	0.269	0.148 µM	0.00536 µM	1.06	> 47.2 µM		0.0607 µM		13.9 µM	< 0.005	< 0.005	< 0.005	0.0912 µM	0.01 µM		< 0.005		0.148 µM	< 0.005 µM
CCCCCCCCCC(=O)CC(=O)c1ccc(O)cc1O	> 100 µM	66.6	84.9 µM	48.2 µM		94 µM	72.1 µM	31.5 µM		> 100 µM										
O=C(O)c1ccc2c(c1)Cc1cc([N+](=O)[O-])ccc1-2	> 100 µM	> 100	> 100 µM	> 100 µM	> 100	> 100 µM		> 100 µM	> 100	> 100 µM										
Nc1ccc2c(SCCSc3c4ccccc4nc4cc(N)ccc34)c3ccccc3nc2c1	> 100 µM	> 100	> 100 µM	> 100 µM	> 100	> 100 µM		> 100 µM	> 100	> 100 µM										
COCCn1cc(-c2csc(-c3c[nH]c4ccccc34)n2)c2cccnc21	> 100 µM	> 100			6.9	> 100 µM	64.3 µM	> 100 µM	> 100		2.66	3.63		1.76 µM	28.2 µM	5.76 µM	3.22	0.418		
